Values after ≈ are worked out from the molar mass of the structure shown.
Legend:
[1] = tested on: Staphylococcus aureus (ATCC 13709, a methicillin sensitive strain (MSSA)); experiment: MIC, NCCLS broth microdilution assay; type: cell-based; conditions: E = S. aureus ATCC 13709
Source text: (§1) In vitro biological activity data were collected for a variety of microorganisms, including Bacillus cereus (ATCC 11778), Staphylococcus aureus (ATCC 27660, a methicillin resistant strain (MRSA); ATCC 13709, a methicillin sensitive strain (MSSA)); Streptococcus pneumoniae (ATCC 51422, a penicillin resistant strain (PRSP)), Enterococcus faecium (ATCC 51559, a vancomycin resistant strain (VRE)), and Staphylococcus epidermidis (ATCC 12228). Additionally, antifungal activity data were collected for Candida albicans (ATCC 38247).
(§2) Compounds according to this invention were screened for their in vitro activities against selected species of bacteria and fungi. The minimal inhibition concentration (MIC) of these compounds was determined using the National Committee for Clinical Laboratory Standards (NCCLS) broth microdilution assay in microtiter plates, as set forth in: (1) the guidelines of the National. Committee for Clinical Laboratory Standards (NCCLS) Document M7-A4 (NCCLS, 1997); (2) the guidelines of the National Committee for Clinical Laboratory Standards (NCCLS) Document M11-A4 (NCCLS, 1997); and (3) the guidelines and reference method of the National Committee for Clinical Laboratory Standards (NCCLS) Document M27-T (NCCLS, 1995). For antifungal assays, the method recommended in Murray, P R., 1995 Manual of Clinical Microbiology (ASM Press, Washington, D.C.), was employed.

[2] = tested on: Bacillus cereus (ATCC 11778); experiment: MIC, NCCLS broth microdilution assay; type: cell-based; conditions: A = B. cereus ATCC 11778
Source text: as §1, §2

[3] = tested on: Staphylococcus aureus (ATCC 27660, a methicillin resistant strain (MRSA)); experiment: MIC, NCCLS broth microdilution assay; type: cell-based; conditions: F = S. aureus ATCC 27660
Source text: as §1, §2

E. faecalis ATCC 29212 = experiment: MIC, NCCLS broth microdilution assay; type: cell-based, Enterococcus faecalis; conditions: C = E. faecalis ATCC 29212
Description: as §2

S. pneumoniae ATCC 49619 = experiment: MIC, NCCLS broth microdilution assay; type: cell-based, Streptococcus pneumoniae; conditions: H = S. pneumoniae ATCC 49619
Description: as §2

[4] = tested on: Candida albicans (ATCC 38247); experiment: Antifungal MIC assay; type: cell-based; conditions: B = C. albicans ATCC 38247
Source text: as §1, §2

[5] = Staphylococcus aureus, read-out: Minimum Inhibitory Concentration (MIC)

SMILES	MIC [1, 5] [µg/mL]	MIC ([2]; Bacillus cereus, ATCC11778, read-out: Minimum Inhibitory Concentration (MIC)) [µg/mL]	MIC [3, 5] [µg/mL]	MIC (E. faecalis ATCC 29212; Enterococcus faecalis, ATCC29212, read-out: Minimum Inhibitory Concentration (MIC)) [µg/mL]	MIC (S. pneumoniae ATCC 49619; Streptococcus pneumoniae, ATCC49619, read-out: Minimum Inhibitory Concentration (MIC)) [µg/mL]	MIC ([4]; Candida albicans, ATCC38247, read-out: Minimum Inhibitory Concentration (MIC)) [µg/mL]	Minimum Inhibitory Concentration (MIC) [1]	Minimum Inhibitory Concentration (MIC) [2]	Minimum Inhibitory Concentration (MIC) [3]	Minimum Inhibitory Concentration (MIC) (E. faecalis ATCC 29212)	Minimum Inhibitory Concentration (MIC) (S. pneumoniae ATCC 49619)	Minimum Inhibitory Concentration (MIC) [4]
Cn1cc(NC(=O)c2cc(NC(=O)c3ccc(Cl)cc3F)c[nH]2)cc1C(=O)NCCN1CCOCC1 [Compound A-17]	4 to 12 (≈ 7.74 to 23.2 µM)	12 to 32 (≈ 23.2 to 61.9 µM)	4 to 12 (≈ 7.74 to 23.2 µM)	≤ 4	≤ 4	> 32						
Cn1cc(NC(=O)c2cc(NC(=O)c3cc(NC(=O)c4ccc(F)cc4F)cn3C)cn2C)cc1C(=O)NCCN1CCC(F)CC1 [Compound B-29]							+++ (+++ = MIC ≦ 4)	+++ (+++ = MIC ≦ 4)	+++ (+++ = MIC ≦ 4)	+++ (+++ = MIC ≦ 4)	+++ (+++ = MIC ≦ 4)	+ (+ = 12 ≦ MIC ≦ 32)
Cn1cc(NC(=O)c2cc(NC(=O)c3cc(NC(=O)c4ccc(F)cc4F)cn3C)cn2C)cc1C(=O)NCC[N+]1(C)CCOCC1 [Compound B-30]							+++ (+++ = MIC ≦ 4)	+++ (+++ = MIC ≦ 4)	+++ (+++ = MIC ≦ 4)	>32 µg/mL	+++ (+++ = MIC ≦ 4)	+ (+ = 12 ≦ MIC ≦ 32)
Cn1cc(NC(=O)c2cc(NC(=O)c3cc(NC(=O)c4ccc(Cl)cc4F)c[nH]3)cn2CCCO)cc1C(=O)NCCN1CCOCC1 [Compound C-14]							+++ (+++ = MIC ≦ 4)	+++ (+++ = MIC ≦ 4)	+++ (+++ = MIC ≦ 4)	++ (++ = 4 < MIC < 12)	+++ (+++ = MIC ≦ 4)	>32 µg/mL
Cn1cc(NC(=O)c2cc(NC(=O)c3cc(NC(=O)c4ccc(F)cc4)cn3C)cn2C)cc1C(=O)NCCN1CCOCC1 [Compound B-32]							++ (++ = 4 < MIC < 12)	+ (+ = 12 ≦ MIC ≦ 32)	+ (+ = 12 ≦ MIC ≦ 32)	++ (++ = 4 < MIC < 12)	++ (++ = 4 < MIC < 12)	>32 µg/mL
Cn1cc(NC(=O)c2cc(NC(=O)c3cc(NC(=O)c4ccc(F)cc4F)cn3C)cn2C)cc1C(=O)NCCN(CCO)CCO [Compound B-25]							+ (+ = 12 ≦ MIC ≦ 32)	+ (+ = 12 ≦ MIC ≦ 32)	+ (+ = 12 ≦ MIC ≦ 32)	+ (+ = 12 ≦ MIC ≦ 32)	+++ (+++ = MIC ≦ 4)	>32 µg/mL
Cn1cc(NC(=O)c2ccc(F)cc2F)cc1C(=O)Nc1cc(C(=O)Nc2cc(C(=O)OCCN3CCOCC3)n(C)c2)n(C)c1 [Compound B-10]							+ (+ = 12 ≦ MIC ≦ 32)	+++ (+++ = MIC ≦ 4)	+ (+ = 12 ≦ MIC ≦ 32)	+++ (+++ = MIC ≦ 4)	+++ (+++ = MIC ≦ 4)	>32 µg/mL
Cn1cc(NC(=O)c2ccc(F)cc2F)cc1C(=O)Nc1cc(C(=O)Nc2cc(C(=O)OCCN3CCCCC3)n(C)c2)n(C)c1 [Compound B-9]							+++ (+++ = MIC ≦ 4)	+++ (+++ = MIC ≦ 4)	+++ (+++ = MIC ≦ 4)	+++ (+++ = MIC ≦ 4)	+++ (+++ = MIC ≦ 4)	>32 µg/mL
Cn1cc(NC(=O)c2cc(NC(=O)c3cc(NC(=O)c4ccc(F)cc4NCCCNC4CCCCC4)cn3C)cn2C)cc1C(N)=O [Compound B-51]							++ (++ = 4 < MIC < 12)	++ (++ = 4 < MIC < 12)	+ (+ = 12 ≦ MIC ≦ 32)	>32 µg/mL	+ (+ = 12 ≦ MIC ≦ 32)	>32 µg/mL
Cn1cc(NC(=O)c2cc(NC(=O)c3cc(NC(=O)c4ccc(F)cc4F)cn3C)cn2C)cc1C(=O)NCCN [Compound B-21]							+ (+ = 12 ≦ MIC ≦ 32)	+ (+ = 12 ≦ MIC ≦ 32)	++ (++ = 4 < MIC < 12)	++ (++ = 4 < MIC < 12)	++ (++ = 4 < MIC < 12)	+ (+ = 12 ≦ MIC ≦ 32)
Cn1cc(NC(=O)c2cc(NC(=O)c3cc(NC(=O)c4ccc(F)cc4F)cn3CCCO)cn2C)cc1C(=O)NCCN1CCOCC1 [Compound C-6]							+ (+ = 12 ≦ MIC ≦ 32)	+ (+ = 12 ≦ MIC ≦ 32)	+ (+ = 12 ≦ MIC ≦ 32)	+ (+ = 12 ≦ MIC ≦ 32)	+++ (+++ = MIC ≦ 4)	>32 µg/mL
COCn1cc(NC(=O)c2ccc(Cl)cc2F)cc1C(=O)Nc1cc(C(=O)Nc2cc(C(=O)NCCN3CCOCC3)n(C)c2)n(C)c1 [Compound C-17]							+++ (+++ = MIC ≦ 4)	+++ (+++ = MIC ≦ 4)	+++ (+++ = MIC ≦ 4)	+++ (+++ = MIC ≦ 4)	+++ (+++ = MIC ≦ 4)	>32 µg/mL
Cn1cc(NC(=O)c2cc(NC(=O)c3ccc(F)cc3F)cn2C)cc1C(=O)NCCN1CCCCC1 [Compound B-14]							+++ (+++ = MIC ≦ 4)	++ (++ = 4 < MIC < 12)	+++ (+++ = MIC ≦ 4)	+++ (+++ = MIC ≦ 4)	+++ (+++ = MIC ≦ 4)	>32 µg/mL
CN(C)CCCn1cc(NC(=O)c2cc(NC(=O)c3ccc(F)cc3F)cn2C)cc1C(=O)Nc1cc(C(=O)NCCN2CCOCC2)n(C)c1 [Compound D-7]							+++ (+++ = MIC ≦ 4)	+++ (+++ = MIC ≦ 4)	+++ (+++ = MIC ≦ 4)	+++ (+++ = MIC ≦ 4)	+++ (+++ = MIC ≦ 4)	+ (+ = 12 ≦ MIC ≦ 32)
Cn1cc(NC(=O)c2cc(NC(=O)c3ccc(Cl)cc3F)c[nH]2)cc1C(=O)NCCN1CCCC1 [Compound A-19]							++ (++ = 4 < MIC < 12)	+ (+ = 12 ≦ MIC ≦ 32)	+++ (+++ = MIC ≦ 4)	+++ (+++ = MIC ≦ 4)	+++ (+++ = MIC ≦ 4)	>32 µg/mL
Cn1cc(NC(=O)c2cc(NC(=O)c3cc(NC(=O)c4ccc(OC(F)F)cc4)cn3C)cn2C)cc1C(=O)NCCN1CCSCC1 [Compound B-86]							+++ (+++ = MIC ≦ 4)	+++ (+++ = MIC ≦ 4)	+++ (+++ = MIC ≦ 4)	+++ (+++ = MIC ≦ 4)	+++ (+++ = MIC ≦ 4)	>32 µg/mL
Cn1cc(NC(=O)c2cc(NC(=O)c3cc(NC(=O)c4cc(NC(=O)c5ccc(Cl)cc5F)c[nH]4)cn3C)cn2C)cc1C(=O)NCCN1CCOCC1 [Compound A-27]							+ (+ = 12 ≦ MIC ≦ 32)	+++ (+++ = MIC ≦ 4)	+ (+ = 12 ≦ MIC ≦ 32)	++ (++ = 4 < MIC < 12)	+++ (+++ = MIC ≦ 4)	>32 µg/mL
Cn1cc(NC(=O)c2cc(NC(=O)c3cc(NC(=O)c4ccc(F)cc4F)cn3C)cn2C)cc1C(=O)NCCNC(=N)N [Compound B-23]							+++ (+++ = MIC ≦ 4)	+++ (+++ = MIC ≦ 4)	+++ (+++ = MIC ≦ 4)	+++ (+++ = MIC ≦ 4)	+++ (+++ = MIC ≦ 4)	++ (++ = 4 < MIC < 12)

— US7348427B2, “Antipathogenic benzamide compounds” (Genesoft Pharmaceuticals, Inc., priority 2001, dated 2008)
